Legend:
Test in all cases: relative viability (nuclei count vs DMSO), 5 days (fraction); higher = more cells survive
JZL-184 + Alpelisib = compound: C1CN(CCC1C(C2=CC3=C(C=C2)OCO3)(C4=CC5=C(C=C4)OCO5)O)C(=O)OC6=CC=C(C=C6)[N+](=O)[O-] [JZL-184] + Cc1nc(NC(=O)N2CCC[C@H]2C(N)=O)sc1-c1ccnc(C(C)(C)C(F)(F)F)c1 [Alpelisib] (partner 2 µM)
Outline: (§1)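 For relative viability, nuclei counts in treated wells were divided by those in vehicle wells. Lung cancer cell lines had been pin-tool dosed in 1536-well plates the day after seeding and cultured for 5 days, then fixed and stained in one step (final 0.05% Triton X-100, 1% formaldehyde, 1 ug/ml Hoechst) and imaged at 4×. Doses were one drug alone or a fixed anchor-drug dose plus five library-drug doses (not always all listed) in √10 steps, and values are duplicate-plate medians.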

JZL-184 + Tozasertib = compound: C1CN(CCC1C(C2=CC3=C(C=C2)OCO3)(C4=CC5=C(C=C4)OCO5)O)C(=O)OC6=CC=C(C=C6)[N+](=O)[O-] [JZL-184] + Cc1cc(Nc2cc(N3CCN(C)CC3)nc(Sc3ccc(NC(=O)C4CC4)cc3)n2)n[nH]1 [Tozasertib] (partner 0.1 µM)
Outline: as §1

JZL-184 + Phenformin = compound: C1CN(CCC1C(C2=CC3=C(C=C2)OCO3)(C4=CC5=C(C=C4)OCO5)O)C(=O)OC6=CC=C(C=C6)[N+](=O)[O-] [JZL-184] + N=C(N)NC(=N)NCCc1ccccc1 [Phenformin] (partner 250 µM)
Outline: as §1

JZL-184 + Vorinostat = compound: C1CN(CCC1C(C2=CC3=C(C=C2)OCO3)(C4=CC5=C(C=C4)OCO5)O)C(=O)OC6=CC=C(C=C6)[N+](=O)[O-] [JZL-184] + O=C(CCCCCCC(=O)Nc1ccccc1)NO [Vorinostat] (partner 1 µM)
Outline: as §1

JZL-184 + Pictilisib = compound: C1CN(CCC1C(C2=CC3=C(C=C2)OCO3)(C4=CC5=C(C=C4)OCO5)O)C(=O)OC6=CC=C(C=C6)[N+](=O)[O-] [JZL-184] + CS(=O)(=O)N1CCN(Cc2cc3nc(-c4cccc5[nH]ncc45)nc(N4CCOCC4)c3s2)CC1 [Pictilisib] (partner 1 µM)
Outline: as §1

Cell Line	relative viability (JZL-184 + Alpelisib; first compound 0.04 µM)	relative viability (JZL-184 + Alpelisib; first compound 0.4 µM)	relative viability (JZL-184 + Alpelisib; first compound 1.265 µM)	relative viability (JZL-184 + Alpelisib; first compound 4 µM)	relative viability (JZL-184 + Tozasertib; first compound 0.04 µM)	relative viability (JZL-184 + Tozasertib; first compound 0.4 µM)	relative viability (JZL-184 + Tozasertib; first compound 1.265 µM)	relative viability (JZL-184 + Tozasertib; first compound 4 µM)	relative viability (JZL-184 + Phenformin; first compound 0.04 µM)	relative viability (JZL-184 + Phenformin; first compound 0.4 µM)	relative viability (JZL-184 + Phenformin; first compound 1.265 µM)	relative viability (JZL-184 + Phenformin; first compound 4 µM)	relative viability (JZL-184 + Vorinostat; first compound 0.04 µM)	relative viability (JZL-184 + Vorinostat; first compound 0.4 µM)	relative viability (JZL-184 + Vorinostat; first compound 1.265 µM)	relative viability (JZL-184 + Vorinostat; first compound 4 µM)	relative viability (JZL-184 + Pictilisib; first compound 0.04 µM)	relative viability (JZL-184 + Pictilisib; first compound 0.4 µM)	relative viability (JZL-184 + Pictilisib; first compound 1.265 µM)	relative viability (JZL-184 + Pictilisib; first compound 4 µM)
LOU-NH91	0.778	0.728	0.745	0.711	0.806	0.727	0.798	0.629	0.795	0.626	0.774	0.708	1.02	0.893	1.03	0.893	0.535	0.471	0.514	0.532
LU99A	0.587	0.535	0.538	0.486	0.283	0.299	0.317	0.285	0.86	0.763	0.999	0.968	0.567	0.377	0.66	0.548	0.353	0.315	0.329	0.313
LXF-289	0.977	1.05	1.06	0.951	0.221	0.206	0.198	0.22	0.574	0.496	0.546	0.525	0.771	0.734	0.755	0.669	0.865	0.71	0.842	0.779
NCI-H23	0.876	0.631	0.587	0.646	0.375	0.307	0.414	0.316	0.879	0.793	0.817	0.855	0.62		0.673	0.502	0.561	0.432	0.538	0.492
NCI-H322M	0.656	0.777	0.749	0.775	0.441	0.444	0.49	0.401	0.844	0.718	0.818	0.662	0.882	0.784	0.867	0.684	0.494	0.472	0.554	0.495
NCI-H358	1.05	0.803	0.973	0.788	0.104	0.118	0.0969	0.101	0.422	0.32	0.304	0.328	0.776	0.768	0.677	0.69	0.353	0.399	0.319	0.444
NCI-H441	1.11	0.634	0.755	1.09	0.769	0.567	0.533	0.513	0.818	0.802	0.914	0.923	0.793	1.02	0.784	0.697	0.631	0.409	0.607	0.423
NCI-H460	0.643	0.465	0.47	0.401	0.428	0.604	0.571	0.275	0.626	0.483	0.521	0.485	0.675	0.597	0.779	0.624	0.385	0.332	0.404	0.374
NCI-H520	1.02	0.965	1.02	0.897	0.424	0.407	0.581	0.413	0.533	0.48	0.739	0.485	0.884	0.683	0.798	0.678	0.351	0.221	0.311	0.245
NCI-H596	0.501	0.487	0.553	0.37	0.878	0.932	0.861	0.931	0.895	0.663	0.895	0.769	0.701	0.63	0.501	0.556	0.397	0.393	0.429	0.356
NCI-H647	1.15	0.957	1.07	1.2	0.388	0.425	0.46	0.252	0.532	0.527	0.595	0.546	0.898	0.635	0.892	0.4	0.495	0.294	0.566	0.468
NCI-H650	1.23	0.951	1.16	1.1	0.84	0.731	0.848	0.761	0.44	0.388	0.469	0.422	0.518	0.369	0.422	0.414	1.08	0.857	0.884	0.876
NCI-H661	0.453	0.483	0.707	0.717	0.364	0.354	0.337	0.325	0.259	0.287	0.292	0.332	0.865	0.714	0.975	0.772	0.372		0.455	0.452
NCI-H727	0.539	0.627	0.542	0.629	0.594	0.568	0.777	0.583	0.676	0.517	0.509	0.45	1.26	1.14	1.08	1.05	0.505	0.393	0.333	0.473
NCI-H838	1.08	1.09	1.03	0.957	0.285	0.299	0.294	0.238	0.594	0.601	0.643	0.608	0.791	0.72	0.738	0.636	0.53	0.449	0.499	0.482
NCI-H1355	0.774	0.826	0.828	0.81	0.589	0.515	0.612	0.433	0.421	0.427	0.505	0.429	0.684	0.63	0.672	0.618	0.431	0.357	0.555	0.396
NCI-H1395	0.993	1.01	1.1	1.04	0.684	0.738	0.827	0.748	0.392	0.421	0.491	0.413	0.651	0.621	0.811	0.683	0.596	0.536	0.761	0.551
NCI-H1437	1.12	0.971	0.92	0.916	0.395	0.398	0.397	0.402	0.301	0.307	0.302	0.288	0.731	0.725	0.756	0.659	0.466	0.408	0.366	0.468
NCI-H1651	1.05	0.929	1.03	0.834	0.771	0.703	0.689	0.668	0.393	0.3	0.337	0.353	0.593	0.36	0.5	0.554	0.842	0.533	0.536	0.499
NCI-H1666	1.04	0.919	1.05	1.06	0.603	0.626	0.581	0.598	0.614	0.585	0.538	0.534	1.07	1.02	1.01	1.01	0.483	0.517	0.5	0.491
NCI-H1734	0.658	0.545	0.714	0.642	0.265	0.231	0.255	0.247	0.469	0.36	0.38	0.349	0.927	0.762	0.844	0.834	0.519	0.471	0.505	0.482
NCI-H1755	0.942	0.866	0.943	0.885	0.545	0.575	0.601	0.453	0.636	0.621	0.614	0.601	0.704	0.634	0.798	0.638	0.432	0.339	0.545	0.401
NCI-H1793	0.689	0.706	0.77	0.691	0.289	0.385	0.409	0.233	0.162	0.368	0.44	0.456	0.663	0.571	0.963	0.64	0.295	0.214	0.344	0.31
NCI-H1915	1.08	1.04	1.04	1.04	0.491	0.41	0.461	0.376	0.378	0.364	0.377	0.367	0.481	0.493	0.48	0.537	1.05	0.914	1.1	0.918
NCI-H1944	0.798	0.869	0.842	0.804	0.283	0.251	0.281	0.248	0.194	0.192	0.198	0.199	0.528	0.476	0.565	0.475	0.345	0.318	0.34	0.335
NCI-H1975	0.751	0.673	0.642	0.577	0.757	0.686	0.869	0.634	0.414	0.411	0.395	0.397	0.731	0.694	0.718	0.635	0.347	0.281	0.304	0.287
NCI-H1993	0.719	0.72	0.711	0.677	0.554	0.582	0.593	0.555	0.428	0.476	0.487	0.47	0.907	0.736	1.21	0.764	0.721	0.864	0.847	0.794
NCI-H2009	1.17	1.1	1.16	1.09	0.798	0.699	0.758	0.651	0.518	0.473	0.51	0.461	0.702	0.692	0.69	0.745	0.985	0.672	0.914	0.844
NCI-H2023	0.654	0.593	0.568	0.593	0.356	0.318	0.345	0.296	0.477	0.342	0.469	0.35	0.766	0.587	0.588	0.44	0.27	0.22	0.301	0.241
NCI-H2085	0.946	0.904	0.905	0.811		0.812	0.845	0.753	0.433	0.682	0.843	0.737		0.805	0.832	0.709	0.459	0.401	0.467	0.549
